From patent EP4567031A1, “HPK1 INHIBITOR, PREPARATION METHOD THEREFOR, AND USE THEREOF” (Beijing Earthwise Technology Co., Ltd., priority 2022, dated 2024)

These compounds were tested on human Pan T cells (assay: Human Pan T cell IL-2 ELISA). Details: Anti-CD3 and Anti-CD28, 48 hours, supernatant IL-2 ELISA, read-out: IL-2 release, EC50.
Format: cell-based
Description: A compound was dissolved in DMSO to 10 mM, and then diluted three-fold with DMSO to 9 dosages in a 96-well plate. Then, 10 µL of the diluted compound sample was transferred to a 96-well plate with 90 µL of cell culture medium, and the plate was shaken for 5 minutes. Then, 5 µL of the diluted compound sample was transferred to a 96-well plate with 120 µL of cell culture medium, and the plate was shaken for 5 minutes. According to the experimental design diagram, 50 µL of the diluted compound sample was transferred to a cell plate. Final concentrations of the compound in this assay were 10000.00, 5000, 2500, 1250, 625, 312.5, 156.25, 78.125 and 39.063 nM.
The assay was conducted in a 96-well plate. On the first day of the assay, Anti-CD3 was added to the 96-well plate and incubated in a 4 °C refrigerator overnight. On the second day of the assay, human Pan T cells were recovered, centrifuged and counted. The cell density was adjusted to 1*10^6 cells/ml. Then, 100 µL of cells were added to the 96-well plate washed with PBS and added with Anti-CD3; according to the experimental design diagram, 50 µL of diluted Anti-CD28 and 50 µL of the diluted compound were added to each well, centrifuged, and the cell plate was placed and incubated in an incubator for 48 hours; after 48 hours, the plate was centrifuged and the supernatant was collected for IL-2 ELISA.
The signal value of light absorption was converted into a multiple. Multiple = sample value/the average value of control wells. The average value of control wells refers to the value measured in wells with DMSO added. EC50 values were calculated by XLFit (version 5.3.1.3) in Excel. Equation: Y=Bottom + (Top-Bottom) / (1 + (EC50/X) ^ HillSlope). Table 6. Results of cellular activity of the compounds

In the case of `CO[C@H]1CCCn2c(-c3cc4c(c5c3CNC5=O)Nc3ccc(N5CC6CCC(C5)O6)cc3C4(C)C)cnc21` [Example 196], the EC50 is reported as 27 nM.

Same assay, conditions: Homo sapiens, T-cell, 48 h, Anti-CD3 and Anti-CD28, supernatant IL-2 ELISA, read-out: IL-2 release, EC50

`CC1(C)c2cc(N3CCOCC3)ccc2Nc2c1cc(-c1cnc3cc(C#N)ccn13)c1c2C(=O)NC1` [Example 165] and `C#Cc1ccn2c(-c3cc4c(c5c3CNC5=O)Nc3ccc(N5CCOCC5)cc3C4(C)C)cnc2c1` [Example 216] are within 1.5-fold of each other in EC50: 4.8 nM for the first, 5.4 nM for the second.

`CC1(C)c2cc(N3CCO[C@@H](C(C)(C)O)C3)ccc2Nc2c1cc(-c1cnn3cc(C(F)F)ccc13)c1c2C(=O)NC1` [Example 169] and `COc1ccnc2c(-c3cc4c(c5c3CNC5=O)Nc3ccc(N5CCO[C@@H](C(C)(C)O)C5)cc3C4(C)C)cnn12` [Example 171] are within 1.5-fold of each other in EC50: 6.4 nM for the first, 6.3 nM for the second.

`CC1(C)c2cc(N3CCOCC3)ccc2Nc2c1cc(-c1cnc3c(OC(F)F)nccn13)c1c2C(=O)NC1` [Example 172] and `CC1(C)c2cc(N3CCOCC3)ccc2Nc2c1cc(-c1cnc3c(C(F)F)nccn13)c1c2C(=O)NC1` [Example 222] are within 1.5-fold of each other in EC50: 8.1 nM for the first, 6.4 nM for the second.

Going from `Cc1nccn2c(-c3cc4c(c5c3CNC5=O)Nc3ccc(N5CCOCC5)cc3C4(C)C)cnc12` [Example 173] to `CC1(C)c2cc(N3CCOCC3)ccc2Nc2c1cc(-c1cnc3c(C#N)nccn13)c1c2C(=O)NC1` [Example 192], the EC50 rises from 3.8 nM to 19 nM (5-fold).

Going from `Cn1c(-c2cc3c(c4c2CNC4=O)Nc2ccc(N4CCO[C@@H](C(C)(C)O)C4)cc2C3(C)C)cnc1N1CCOCC1` [Example 174] to `CC1(C)c2cc(N3CCO[C@@H](C(C)(C)O)C3)ccc2Nc2c1cc(-c1cnc3c(F)c(C#N)ccn13)c1c2C(=O)NC1` [Example 179], the EC50 falls from 39 nM to 6.9 nM (5.7-fold). The second is the more potent here.

Going from `CC1(C)c2cc(N3CCOCC3)ccc2Nc2c1cc(-c1cnc3c(OC4COC4)nccn13)c1c2C(=O)NC1` [Example 184] to `CC1(C)c2cc(N3CCOCC3)ccc2Nc2c1cc(-c1cnc3c(OC4CC4)nccn13)c1c2C(=O)NC1` [Example 199], the EC50 rises from 14 nM to 24 nM (1.7-fold).

First: Cc1ccn2c(-c3cc4c(c5c3CNC5=O)Nc3ccc(N5CCOCC5)cc3C4(C)C)cnc2n1 [Example 185]
Second: COc1ccn2c(-c3cc4c(c5c3CNC5=O)Nc3ccc(N5CCOCC5)cc3C4(C)C)cnc2n1 [Example 189]
The EC50 of the first is 2.6-fold lower: 2.2 nM for the first, 5.7 nM for the second. The first is the more potent here.

Compared with `COc1ccn2c(-c3cc4c(c5c3CNC5=O)Nc3ccc(N5CCOCC5)cc3C4(C)C)cnc2c1` [Example 186], `CC1(C)c2cc(N3CCOCC3)ccc2Nc2c1cc(-c1cnc3cc(OC4COC4)ccn13)c1c2C(=O)NC1` [Example 217] is 2.4-fold higher in EC50: 7.9 nM for the first, 19 nM for the second. The first is the more potent here.

Going from `CC1(C)c2cc(N3CCOCC3)ccc2Nc2c1cc(-c1cnc3c(C4COC4)nccn13)c1c2C(=O)NC1` [Example 188] to `CC1(C)c2cc(N3CCOCC3)ccc2Nc2c1cc(-c1cnc3c(OC4CNC4)nccn13)c1c2C(=O)NC1` [Example 224], the EC50 falls from 73 nM to 33 nM (2.2-fold). The second is the more potent here.

First: CC1(C)c2cc(N3CCOCC3)ccc2Nc2c1cc(-c1cnc3c(F)c(C(F)F)ccn13)c1c2C(=O)NC1 [Example 193]
Second: CC1(C)c2cc(N3CCOCC3)ccc2Nc2c1cc(-c1cnc3c(F)c(C#N)ccn13)c1c2C(=O)NC1 [Example 198]
The EC50 of the first is 1.8-fold higher: 9.5 nM for the first, 5.3 nM for the second. The second is the more potent here.

Compared with `COc1nccn2c(-c3cc4c(c5c3CNC5=O)Nc3ccc(N5CCN6CCOCC6C5)cc3C4(C)C)cnc12` (centres unmarked) [Example 194], `COc1nccn2c(-c3cc4c(c5c3CNC5=O)Nc3ccc(N5CCOC6(CC6)C5)cc3C4(C)C)cnc12` [Example 201] is 1.6-fold lower in EC50: 4.3 nM for the first, 2.7 nM for the second. The second is the more potent here.

Going from `COCC1CN(c2ccc3c(c2)C(C)(C)c2cc(-c4cnc5c(OC)nccn45)c4c(c2N3)C(=O)NC4)CCO1` (centres unmarked) [Example 195] to `COCC1(O)CCN(c2ccc3c(c2)C(C)(C)c2cc(-c4cnc5c(OC)nccn45)c4c(c2N3)C(=O)NC4)CC1` [Example 200], the EC50 falls from 3.7 nM to 1.4 nM (2.6-fold). The second is the more potent here.

Going from `CC1(C)c2cc(N3CCOCC3)ccc2Nc2c1cc(-c1cnc3nc(C(F)F)ccn13)c1c2C(=O)NC1` [Example 197] to `CC1(C)c2cc(N3CCOCC3)ccc2Nc2c1cc(-c1cnc3nc(C(F)F)ccn13)c1c2C(=O)NCC1` [Example 282], the EC50 rises from 11 nM to 44 nM (4-fold).

Going from `CC1(C)c2cc(N3CCOC(C4(O)CC4)C3)ccc2Nc2c1cc(-c1cnc3cc(C(F)F)ccn13)c1c2C(=O)NC1` (centres unmarked) [Example 205] to `CC1(C)c2cc(N3CCOCC3)ccc2Nc2c1cc(-c1cnc3cc(N4CC(F)C4)ccn13)c1c2C(=O)NC1` [Example 207], the EC50 rises from 6.6 nM to 23 nM (3.5-fold). The first is the more potent here.

First: CC1(C)c2cc(N3CCOCC3)ccc2Nc2c1cc(-c1cnc3cc(N4CCC4)ccn13)c1c2C(=O)NC1 [Example 206]
Second: CC1(C)c2cc(N3CCOCC3)ccc2Nc2c1cc(-c1cnc3c(N4CCC4)nccn13)c1c2C(=O)NC1 [Example 211]
The EC50 of the first is 1.8-fold higher: 99 nM for the first, 55 nM for the second.

First: CC(C)(O)c1ccn2c(-c3cc4c(c5c3CNC5=O)Nc3ccc(N5CCOCC5)cc3C4(C)C)cnc2c1 [Example 208]
Second: COc1c(F)ccn2c(-c3cc4c(c5c3CNC5=O)Nc3ccc(N5CCOCC5)cc3C4(C)C)cnc12 [Example 209]
The EC50 of the first is 4.8-fold higher: 16 nM for the first, 3.3 nM for the second.

`COc1ccn2c(-c3cc4c(c5c3CNC5=O)Nc3ccc(N5CCOCC5)cc3C4(C)C)cnc2c1F` [Example 225] and `CC1(C)c2cc(N3CCOCC3)ccc2Nc2c1cc(-c1cnc3c(=O)n(C(F)F)ccn13)c1c2C(=O)NC1` [Example 258] are within 1.5-fold of each other in EC50: 8.1 nM for the first, 6.1 nM for the second.

Compared with `COc1nccn2c(-c3cc4c(c5c3CNC5=O)Nc3ccc(N5C6CCC5COC6)cc3C4(C)C)cnc12` [Example 232], `COc1nccn2c(-c3cc4c(c5c3CNC5=O)Nc3ccc(N5CCOCC5=O)cc3C4(C)C)cnc12` [Example 238] is 5.3-fold higher in EC50: 11 nM for the first, 58 nM for the second. The first is the more potent here.

`CC1(C)c2cc(N3CCOCC3)ccc2Nc2c1cc(-c1cnn3cc(C#N)ccc13)c1c2C(=O)NC1` [Example 237] and `CC1(C)c2cc(N3CCOCC3)ccc2Nc2c1cc(-c1cnc3cc(C#N)cnn13)c1c2C(=O)NC1` [Example 246] are within 1.5-fold of each other in EC50: 8.7 nM for the first, 9.2 nM for the second.

First: CC1(C)c2cc(N3CCOCC3)ccc2Nc2c1cc(-c1cnc3nc(N4CC(F)C4)ccn13)c1c2C(=O)NC1 [Example 247]
Second: CC1(C)c2cc(N3CCOCC3)ccc2Nc2c1cc(-c1cnc3nc(N4CC(O)C4)ccn13)c1c2C(=O)NC1 [Example 253]
The EC50 of the first is 5.9-fold lower: 9.2 nM for the first, 54 nM for the second.

Compared with `Cn1cnc2c(-c3cc4c(c5c3CNC5=O)Nc3ccc(N5CCOCC5)cc3C4(C)C)cncc21` [Example 248], `CC1(C)c2cc(N3CCOCC3)ccc2Nc2c1cc(-c1cnc3ncccn13)c1c2C(=O)NC1` [Example 250] is 1.6-fold higher in EC50: 1.9 nM for the first, 3.1 nM for the second.

Compared with `CC1(C)c2cc(N3CCOCC3)ccc2Nc2c1cc(-c1nnc3cc(C#N)ccn13)c1c2C(=O)NC1` [Example 249], `CC1(C)c2cc(N3CCOCC3)ccc2Nc2c1cc(-c1cnc3nc(C4CC4)ccn13)c1c2C(=O)NC1` [Example 254] is 6-fold higher in EC50: 4.7 nM for the first, 28 nM for the second.

First: Cc1c(-c2cc3c(c4c2CNC4=O)Nc2ccc(N4CCOCC4)cc2C3(C)C)cnc2c1NCCO2 [Example 251]
Second: COc1nccn2c(-c3cc4c(c5c3CCNC5=O)Nc3ccc(N5CCOCC5)cc3C4(C)C)cnc12 [Example 280]
The EC50 of the first is 2-fold lower: 6.4 nM for the first, 13 nM for the second.

First: COc1nccn2c(-c3cc4c(c5c3CNC5=O)Nc3ccc(C5CNC(=O)C5)cc3C4(C)C)cnc12 (centres unmarked) [Example 255]
Second: CN(C)C(=O)c1ccc2c(c1)C(C)(C)c1cc(-c3cnc4nc(C(F)F)ccn34)c3c(c1N2)C(=O)NC3 [Example 257]
The EC50 of the first is 31-fold lower: 5 nM for the first, 154 nM for the second. The first is the more potent here.

`CC1(O)CCN(c2ccc3c(c2)C(C)(C)c2cc(-c4cnc5nc(C(F)F)ccn45)c4c(c2N3)C(=O)NC4)CC1` [Example 256] showed an EC50 of 16 nM.
